Experimental data as given in patent US8129527B2, “Analogs of dehydrophenylahistins and their therapeutic use” (Nereus Pharmacuticals, Inc., priority 2006, dated 2012).

Test system: HT-29 human colorectal carcinoma cells
Test: Cell growth inhibition assay, resazurin (Table 3.2)
Type: cell-based
Settings: HT-29, read-out: EC50 (M) Mean
Protocol: The cytotoxic effects of various derivatives of dehydrophenylahistin against HT-29 human colorectal carcinoma cells were determined.
HT-29 cells (ATCC; HTB-38) were maintained in ATCC recommended culture media and cultured in an incubator at 37° C. in 5% CO2 and 95% humidified air.
For cell growth inhibition assays, HT-29 cells were seeded at 5×10^3 cells/well in 90 μl complete media into a Corning 3904 black-walled, clear-bottom tissue culture plates and the plates were incubated overnight to allow cells to establish and enter log phase growth. 20 mM stock solutions of compounds were prepared in 100% DMSO and stored at −80° C. 10× concentrated serial dilutions of the compounds were prepared in culture medium for final concentrations ranging from 20 μM to […]. Ten μl volumes of the 10× serial dilutions were added to the test wells in triplicate and the plates returned to the incubator for 48 hours. The final concentration of DMSO was 0.25% in all samples.
Following 48 hours of drug exposure, 10 μl of 0.2 mg/ml resazurin (obtained from Sigma-Aldrich Chemical Co.) in Mg^2+, Ca^2+ free phosphate buffered saline was added to each well and the plates were returned to the incubator for 3-4 hours. […] Resazurin dye in medium without cells was used to determine the background, which was subtracted from the data for all experimental wells.

Question: For `CC(C)(C)c1ocnc1/C=c1\[nH]c(=O)/c(=C/c2ccc3nsnc3c2)[nH]c1=O` [Compound 2509, tBu-oxadelta-PLH-2,1,3-benzothiadiazole], which EC50 is on record?
Answer: 4.04e-07 M

Question: Which EC50 does the source give for `COc1cccc(/C=c2\[nH]c(=O)/c(=C/c3ncoc3C(C)(C)C)[nH]c2=O)c1` [Compound 2462, tBu-Oxadelta-PLH-m-OMe] here?
Answer: 5.41e-08 M

Question: For `CC(C)(C)c1ocnc1/C=c1\[nH]c(=O)/c(=C/c2ccccn2)[nH]c1=O` [Compound 2474, tBu-Oxadelta-PLH-2-Py], which EC50 is on record?
Answer: > 6.32e-07 M

Question: Which EC50 does the source give for `CC(C)(C)c1ocnc1/C=c1\[nH]c(=O)/c(=C/c2cccc3ccccc23)[nH]c1=O` [Compound 2464, tBu-Oxadelta-PLH-1-naphth] here?
Answer: 5.37e-08 M

Question: With `CC(C)(C)c1ocnc1/C=c1\[nH]c(=O)/c(=C/c2cccc(Cl)c2Cl)[nH]c1=O` [Compound 2468, tBu-Oxadelta-PLH-2,3-diCl] as the compound, how does the EC50 read?
Answer: 7.92e-08 M

Question: With `CC(C)(C)c1ocnc1/C=c1\[nH]c(=O)/c(=C/c2ccnc3ccccc23)[nH]c1=O` [Compound 2500, tBu-oxadelta-PLH-4-quinoline] as the compound, how does the EC50 read?
Answer: 3.99e-07 M

Question: With `CC(C)(C)c1ocnc1/C=c1\[nH]c(=O)/c(=C/c2ccc(Br)o2)[nH]c1=O` [Compound 2483, tBu-Oxadelta-PLH-5-Br-2-furyl] as the compound, how does the EC50 read?
Answer: 2.48e-07 M

Question: For `CC(C)(C)c1ocnc1/C=c1\[nH]c(=O)/c(=C/c2cccc(Oc3ccccc3)c2)[nH]c1=O` [Compound 2501, tBu-oxadelta-PLH-3-phenoxy], which EC50 is on record?
Answer: 2.39e-08 M

Question: For `CC(C)(C)c1ocnc1/C=c1\[nH]c(=O)/c(=C/c2cccc(C(F)(F)F)c2)[nH]c1=O` [Compound 2488, tBu-Oxadelta-PLH-m-CF3], which EC50 is on record?
Answer: 2.49e-07 M

Question: For `CC(C)(C)c1ocnc1/C=c1\[nH]c(=O)/c(=C/c2cccc([N+](=O)[O-])c2)[nH]c1=O` [Compound 2479, tBu-Oxadelta-PLH-m-NO2], which EC50 is on record?
Answer: 1.08e-07 M

Question: With `CC(C)(C)c1ocnc1/C=c1\[nH]c(=O)/c(=C/c2ccc(Cl)o2)[nH]c1=O` [Compound 2481, tBu-Oxadelta-PLH-5-Cl-2-furyl] as the compound, how does the EC50 read?
Answer: 2.56e-07 M

Question: For `CC(C)(C)c1ocnc1/C=c1\[nH]c(=O)/c(=C/c2cc(F)cc3c2OCOC3)[nH]c1=O` [Compound 2511, tBu-oxadelta-PLH-7-fluoro-2,4-benzodioxine], which EC50 is on record?
Answer: 2.39e-08 M

Question: With `Cc1ccccc1/C=c1\[nH]c(=O)/c(=C/c2ncoc2C(C)(C)C)[nH]c1=O` [Compound 2472, tBu-Oxadelta-PLH-o-Me] as the compound, how does the EC50 read?
Answer: 5.46e-08 M

Question: For `CC(C)(C)c1ocnc1/C=c1\[nH]c(=O)/c(=C/c2cc3ccccc3n2S(=O)(=O)c2ccccc2)[nH]c1=O` [Compound 2508, tBu-oxadelta-PLH-1-(Ph-sulfo)-2-indole], which EC50 is on record?
Answer: > 6.32e-06 M

Question: With `Cc1oc(-c2ccccc2)cc1/C=c1\[nH]c(=O)/c(=C/c2ncoc2C(C)(C)C)[nH]c1=O` [Compound 2505, tBu-oxadelta-PLH-2-Me-5-Ph-3-furyl] as the compound, how does the EC50 read?
Answer: > 6.32e-06 M

Question: Which EC50 does the source give for `Cc1cccc(/C=c2\[nH]c(=O)/c(=C/c3ncoc3C(C)(C)C)[nH]c2=O)c1` [Compound 2466, tBu-Oxadelta-PLH-3-CH3] here?
Answer: 5.55e-08 M

Question: Which EC50 does the source give for `Cc1cccc(/C=c2\[nH]c(=O)/c(=C/c3ncoc3C(C)(C)C)[nH]c2=O)c1C` [Compound 2486, tBu-Oxadelta-PLH-2,3-diMe] here?
Answer: 1.43e-07 M

Same assay, conditions: Table 3.2, HT-29 cells, read-out: EC50 (M) Mean

Question: Which EC50 does the source give for `CC(C)(C)c1ocnc1/C=c1\[nH]c(=O)/c(=C/c2ccccc2F)[nH]c1=O` [Compound 2475, tBu-Oxadelta-PLH-2-F] here?
Answer: 4.66e-07 M

Question: For `CC(C)(C)c1ocnc1/C=c1\[nH]c(=O)/c(=C/c2cccc(OC(F)(F)F)c2)[nH]c1=O` [Compound 2477, tBu-Oxadelta-PLH-m-OCF3], which EC50 is on record?
Answer: 4.86e-08 M

Question: With `CC(C)(C)c1[nH]cnc1/C=c1\[nH]c(=O)/c(=C/c2cc(Cl)ccc2N)[nH]c1=O` [Compound 2461, tBu-delta-PLH-5-Cl-2-NH2] as the compound, how does the EC50 read?
Answer: 2.95e-07 M

Question: For `COc1ccccc1/C=c1\[nH]c(=O)/c(=C/c2ncoc2C(C)(C)C)[nH]c1=O` [Compound 2485, tBu-Oxadelta-PLH-2-OMe], which EC50 is on record?
Answer: 2.18e-07 M

Question: For `CC(C)(C)c1ocnc1/C=c1\[nH]c(=O)/c(=C/CCc2ccccc2)[nH]c1=O` [Compound 2496, tBu-oxadelta-PLH-Ph-pr], which EC50 is on record?
Answer: 9.48e-07 M

Question: For `CC(C)(C)c1ocnc1/C=c1\[nH]c(=O)/c(=C/c2cccc(Br)c2)[nH]c1=O` [Compound 2473, tBu-Oxadelta-PLH-3-Br], which EC50 is on record?
Answer: 5.59e-08 M

Question: With `CC(C)(C)c1ocnc1/C=c1\[nH]c(=O)/c(=C/c2ccccc2[N+](=O)[O-])[nH]c1=O` [Compound 2476, tBu-Oxadelta-PLH-2-NO2] as the compound, how does the EC50 read?
Answer: 1.24e-07 M

Question: For `CC(C)(C)c1ocnc1/C=c1\[nH]c(=O)/c(=C/c2ccc(-c3cccs3)s2)[nH]c1=O` [Compound 2502, tBu-oxadelta-PLH-2,2′-bitio], which EC50 is on record?
Answer: 1.88e-06 M

Question: Which EC50 does the source give for `CC(C)(C)c1ocnc1/C=c1\[nH]c(=O)/c(=C/c2cc(Cl)cc(Cl)c2)[nH]c1=O` [Compound 2470, tBu-Oxadelta-PLH-3,5-diCl] here?
Answer: 2.78e-07 M

Question: Which EC50 does the source give for `COc1cc(/C=c2\[nH]c(=O)/c(=C/c3ncoc3C(C)(C)C)[nH]c2=O)cc(OC)c1` [Compound 2469, tBu-Oxadelta-PLH-3,5-diOMe] here?
Answer: 8.63e-08 M

Test system: not given
Test: not given
Settings: not given

Question: For `CC(C)(C)c1ocnc1/C=c1\[nH]c(=O)/c(=C/c2ccc3nsnc3c2)[nH]c1=O`, which melting point is on record?
Answer: 234 to 236 °C

Question: With `CC(C)(C)c1ocnc1/C=c1\[nH]c(=O)/c(=C/c2cccc(C(=O)c3ccccc3)c2)[nH]c1=O` as the compound, how does the melting point read?
Answer: 151 to 153 °C

Question: For `CC(C)(C)c1ocnc1/C=c1\[nH]c(=O)/c(=C/c2cccc(Cl)c2)[nH]c1=O`, which melting point is on record?
Answer: 171 to 173 °C

Question: With `CC(C)(C)c1ocnc1/C=c1\[nH]c(=O)/c(=C/c2cccc(Cl)c2Cl)[nH]c1=O` as the compound, how does the melting point read?
Answer: 198 to 200 °C

Question: For `CC(C)(C)c1ocnc1/C=c1\[nH]c(=O)/c(=C/c2ccccc2Cl)[nH]c1=O` [KPU-204, 3-{(Z)-1-[5-(tert-Butyl)-1H-4-oxazolyl]methylidene}-6-[(Z)-1-(2-chlorophenyl)methlidene]-2,5-piperazinedione], which melting point is on record?
Answer: 166 to 168 °C

Question: For `CCOc1ccc2ccccc2c1/C=c1\[nH]c(=O)/c(=C/c2ncoc2C(C)(C)C)[nH]c1=O` [KPU-229, 3-{(Z)-1-[5-(tert-Butyl)-1H-4-oxazolyl]methylidene}-6-[(Z)-1-(2-ethoxy-1-naphthyl)methlidene]-2,5-piperazinedione], which melting point is on record?
Answer: 201 to 203 °C

Question: For `CC(C)(C)c1ocnc1/C=c1\[nH]c(=O)/c(=C/c2c(F)ccc(F)c2F)[nH]c1=O` [KPU-238, 3-{(Z)-1-[5-(tert-Butyl)-1H-4-oxazolyl]methylidene}-6-[(Z)-1-(2,36-trifluorophenyl)methlidene]-2,5-piperazinedione], which melting point is on record?
Answer: 212 to 214 °C

Question: Which melting point does the source give for `CC(C)(C)c1ocnc1/C=c1\[nH]c(=O)/c(=C/c2ccccc2F)[nH]c1=O` [KPU-214, 3-{(Z)-1-[5-(tert-Butyl)-1H-4-oxazolyl]methylidene}-6-[(Z)-1-(2-fluorophenyl)methlidene]-2,5-piperazinedione] here?
Answer: 170 to 172 °C

Question: For `CC(C)(C)c1ocnc1/C=c1\[nH]c(=O)/c(=C/c2cccc(C(F)(F)F)c2)[nH]c1=O`, which melting point is on record?
Answer: 243 to 245 °C

Question: For `CC(C)(C)c1ocnc1/C=c1\[nH]c(=O)/c(=C/c2ccoc2)[nH]c1=O` [KPU-217, 3-{(Z)-1-[5-(tert-Butyl)-1H-4-oxazolyl]methylidene}-6-[(Z)-1-(3-furyl)methlidene]-2,5-piperazinedione], which melting point is on record?
Answer: 164 to 166 °C

Question: Which melting point does the source give for `COc1cc(/C=c2\[nH]c(=O)/c(=C/c3ncoc3C(C)(C)C)[nH]c2=O)cc(OC)c1` [KPU-208, 3-{(Z)-1-[5-(tert-Butyl)-1H-4-oxazolyl]methylidene}-6-[(Z)-1-(3,5-dimethoxyphenyl)methlidene]-2,5-piperazinedione] here?
Answer: 171 to 173 °C
